The subject of data set [1] is β-catenin-dependent Wnt-pathway. Kind of data set: TopFlash luciferase reporter assay, CHIR99021-stimulated, HCC1395. Type of data set: cell-based. The settings on record: for GSK HCC1395 Comments: Table S2; for IC50 / Emax: Homo sapiens; for TopFlash activity in words: HCC1395, CHIR99021; for Emax: read-out: HCC1395 TopFlash Efficacy. From the text:
Both stimulations abolish formation of the destruction complex, a multiprotein complex consisting of Axin, adenomatous polyposis coli (APC), glycogen synthase kinase three beta (GSK3β), and casein kinase one alpha (CK1α). Upon inactivation of the complex, β-catenin accumulates in the cytoplasm and translocates into the nucleus where it interacts with transcription factors. These downstream events are quantified by a Luciferase transcription-based readout assay (TopFlash assay).
(Reporter assays use an easily measured gene product as a stand-in for the process of interest.)

Another data set is described as follows: in vitro. Particulars: human. The method, then:
(§1) The simplicity of the scaffold combined with synthetic accessibility allows building a library of compounds and performing structure activity relationship (SAR) studies of the three main parts of the molecule: the top part, the linker and the core (Figure 2).
(§2) The synthesized compounds were used to explore SAR of three defined areas of investigation (Figure 2). All compounds were tested in the HCC1395 TNBC cell line using the GSK3β inhibitor to induce β-catenin signaling since 4a acted downstream of GSK3β (Figure 2). Both inhibition of β-catenin signaling measured by the TopFlash reporter and cytotoxicity measured by the Renilla reporter were assessed.
(§3) The Wnt3a or CHIR99021-stimulated luciferase activity in HCC1395 TNBC cell line stably transfected with the TopFlash reporter was analyzed essentially as described for the BT-20 TNBC cell line ([Shaw et al., 2019b]; [Koval et al., 2021]). Reporter cells were seeded at 10,000 cells/well in a white opaque 384-well plate in the final volume of 20 μl of DMEM medium supplemented with 10% FCS. The cells were maintained incubated at 37°C, 5% CO2 overnight for attachment. Subsequently, they were transfected by a plasmid encoding constitutively expressed Renilla luciferase under the CMV promoter overall as described in the manufacturer’s protocol using 12 μg/ml of DNA and 40 μl/ml XtremeGENE nine reagent. The next day, the medium in each well was replaced with a 10 μl of fresh medium containing compound of interest, and, after 1 h of preincubation with the compounds, additional 10 μl of medium supplemented with Wnt3a [purified as described ([Willert et al., 2003]; [Koval and Katanaev, 2011])] or CHIR99021 were added creating respective final concentrations of 2.5 μg/ml or 5 μM of each. In case of other signal transduction reporters, no additional stimulation was performed. Compound dilutions were prepared by serial dilution in DMSO and diluted with the amount of medium necessary to obtain their final concentrations indicated on the figures and tables and maintain concentration of DMSO of 0.5% in all assay points. After overnight incubation, the supernatant in each well was removed, and the luciferase activity was measured as described ([Dyer et al., 2000]; [Huber et al., 2021]; [Pellissier et al., 2021]). The culture medium was completely removed from all wells of the plate. Finally, the luciferase activity of the firefly and Renilla luciferases was detected sequentially in individual wells of a 384-well plate through injection of corresponding measurement solutions and immediate reading (400 ms integration time) in Infinite M Plex multifunctional plate reader with injection module.

For a further data set, the system named is HCC1395 cells. Kind of data set: in vitro. Particulars: for HCC1395 Cytotoxicity Efficacy: human. The method, then: as §1, §2, §3
The mark [2] stands for this setting: HCC1395, HCC1395, stimulation with CHIR99021 (GSK3β inhibitor), read-out: HCC1395 TopFlash IC50.
[3] abbreviates: HCC1395, HCC1395, stimulation with CHIR99021 (GSK3β inhibitor).
The mark [4] stands for this setting: HCC1395, Table S2, TopFlash, GSK3β inhibitor stimulation, read-out: GSK HCC1395 IC50.

SMILES strings stand for the structures. Where two headings read alike, the source gives them in different places.

Broadly, the IC50 is the concentration at which inhibition is half-maximal. Turning to `CCN(Cc1cccc(OC)c1)c1ncnc2sccc12` [Compound 5i, N-ethyl-N-(3-methoxybenzyl)thieno[2,3-d]pyrimidin-4-amine], the “GSK HCC1395 Comments” value in data set [1] is “Toxic”. This compound also showed an IC50 in the data set “in vitro” (HCC1395 Cytotoxicity IC50) of 8.3 ± 3.79 µM. For the same compound, in the data set on HCC1395 cells, the “HCC1395 Cytotoxicity Efficacy” value is listed as 64.1 ± 9.3%.
In the case of `N#Cc1cccc(CNc2ncnc3sccc23)c1` [Compound 4l, 3-((thieno[2,3-d]pyrimidin-4-ylamino)methyl)benzonitrile], in data set [1], the “GSK HCC1395 Comments” value is “Toxic”. The same compound registered an IC50 in the data set “in vitro” (HCC1395 Cytotoxicity IC50) of 10 ± 3.36 µM. Moreover, the “HCC1395 Cytotoxicity Efficacy” value in the data set on HCC1395 cells is 32.2 ± 10.5%.
Consider `COc1ccccc1CNc1ncnc2ccccc12` [Compound 9a, N-(2-methoxybenzyl)quinazolin-4-amine], for which the “GSK HCC1395 Comments” value in data set [1] is “Toxic”. This compound showed an IC50 in “in vitro” (HCC1395 Cytotoxicity IC50) of 29 ± 14.5 µM. In the data set on HCC1395 cells, the “HCC1395 Cytotoxicity Efficacy” value turned out to be 100 ± 0%.
In the case of `N#Cc1ccccc1CNc1ncnc2sccc12` [Compound 4k, 2-((thieno[2,3-d]pyrimidin-4-ylamino)methyl)benzonitrile], the IC50 in data set [1] (setting [2]) is more than 50 µM. In data set [1], the “GSK HCC1395 Comments” value is given as “Inactive”.
Consider `COc1cccc(CNc2ccnc3ccccc23)c1` [Compound 16, N-(3-methoxybenzyl)quinolin-4-amine], for which, in data set [1], the “GSK HCC1395 Comments” value is on record as “Toxic”. Also, the IC50 in “in vitro” (HCC1395 Cytotoxicity IC50) is 18.7 µM. Also, the “HCC1395 Cytotoxicity Efficacy” value in the data set on HCC1395 cells turned out to be 39.4 ± 13.0%.
Take `c1ccc(Nc2ncnc3sccc23)cc1` [Compound 5f, N-phenylthieno[2,3-d]pyrimidin-4-amine]: the “TopFlash activity in words” value in data set [1] is “inactive”. Moreover, the IC50 in data set [1] (setting [2]) is more than 50 µM.
As for `Cc1ccc(C(C)Nc2ncnc3sccc23)cc1` (stereo not shown) [Compound 5e, N-(1-(p-tolyl)ethyl)thieno[2,3-d]pyrimidin-4-amine], in data set [1] (setting [3]), the Emax stood at 47 ± 9.67%. The results for the IC50 (in data set [1] (setting [2]); in “in vitro” (HCC1395 Cytotoxicity IC50)) were 0.63 ± 0.21 µM and more than 50 µM, respectively.
Regarding `COc1cccc(CNc2ccncn2)c1` [Compound 12, N-(3-methoxybenzyl)pyrimidin-4-amine], in data set [1], the “TopFlash activity in words” value was “no longer active” and the “GSK HCC1395 Comments” value is recorded as “Inactive”. Besides, the IC50 in data set [1] (setting [2]) was more than 100 µM. Further, the IC50 in data set [1] (setting [4]) is more than 50 µM.
As for `COc1cccc(C(=O)Nc2ncnc3sccc23)c1` [Compound 7, 3-methoxy-N-(thieno[2,3-d]pyrimidin-4-yl)benzamide], the IC50 in data set [1] (setting [2]) was more than 50 µM. The “GSK HCC1395 Comments” value in data set [1] was “Inactive”.
For `COc1cccc(CCNc2ncnc3sccc23)c1` [Compound 5n, N-(3-methoxyphenethyl)thieno[2,3-d]pyrimidin-4-amine], in data set [1], the “TopFlash activity in words” value is reported as “not tolerated” and the “GSK HCC1395 Comments” value is reported as “Inactive”. Further, the IC50 in data set [1] (setting [2]) is more than 50 µM.
Take `CC(Nc1ncnc2sccc12)c1ccc(F)cc1` (stereo not shown) [Compound 5c, N-(1-(4-fluorophenyl)ethyl)thieno[2,3-d]pyrimidin-4-amine]: the Emax in data set [1] (setting [3]) amounted to 46.9 ± 8.41%. The values for the IC50 (in data set [1] (setting [2]); in “in vitro” (HCC1395 Cytotoxicity IC50)) were 2.1 ± 1.64 µM and more than 50 µM, respectively.
`Clc1ccc(CCNc2ncnc3ccccc23)cc1` [Compound 9g, N-(4-chlorophenethyl)quinazolin-4-amine]: the “GSK HCC1395 Comments” value in data set [1] is given as “Toxic”. In addition, in the data set “in vitro”, the IC50 amounted to 13 ± 1.45 µM. In the data set on HCC1395 cells, the “HCC1395 Cytotoxicity Efficacy” value is 100 ± 0%.
For the compound `Fc1cccc(CNc2ncnc3sccc23)c1` [Compound 4f, N-(3-fluorobenzyl)thieno[2,3-d]pyrimidin-4-amine], the IC50 in data set [1] (setting [2]) is more than 50 µM. Also, in data set [1], the “GSK HCC1395 Comments” value was “Inactive”.
Consider `CC(Nc1ncnc2ccccc12)c1ccc(F)cc1` (stereo not shown) [Compound 9h, N-(1-(4-fluorophenyl)ethyl)quinazolin-4-amine], for which the Emax in data set [1] (setting [3]) was 66.4 ± 6.9%. Moreover, the results for the IC50 (in data set [1] (setting [2]); in the data set “in vitro” (HCC1395 Cytotoxicity IC50)) were 10.7 ± 2.33 µM and 16.6 ± 6.59 µM, respectively. Besides, the “HCC1395 Cytotoxicity Efficacy” value in the data set with HCC1395 cells stood at 51.1 ± 21.3%.
With `Clc1ccccc1CNc1ncnc2sccc12` [Compound 4h, N-(2-chlorobenzyl)thieno[2,3-d]pyrimidin-4-amine], the “GSK HCC1395 Comments” value in data set [1] is reported as “Toxic”. The compound further had an IC50 in the data set “in vitro” (HCC1395 Cytotoxicity IC50) of 8.61 ± 4.38 µM. Further, in the data set on HCC1395 cells, the “HCC1395 Cytotoxicity Efficacy” value was 67.1 ± 7.8%.
Take `N#Cc1ccc(CNc2ncnc3sccc23)cc1` [Compound 4m, 4-((thieno[2,3-d]pyrimidin-4-ylamino)methyl)benzonitrile]: in data set [1], the “TopFlash activity in words” value was “abrogated the activity” and the “GSK HCC1395 Comments” value is “Inactive”. In addition, the IC50 in data set [1] (setting [2]) was more than 50 µM. In addition, the “GSK HCC1395 Renilla Comments” value with HCC1395 cells was “Non-toxic”.
With `COc1cccc(CNc2nccc3ccccc23)c1` [Compound 13, N-(3-methoxybenzyl)isoquinolin-1-amine], the IC50 in data set [1] (setting [2]) was more than 100 µM; in data set [1] (setting [4]), more than 50 µM; in “in vitro” (HCC1395 Cytotoxicity IC50) it was more than 100 µM. For the same compound, the “GSK HCC1395 Renilla Comments” value with HCC1395 cells is “Non-toxic”.
`COc1cccc(CNc2cc(Cl)ncn2)c1` [Compound 11, 6-chloro-N-(3-methoxybenzyl)pyrimidin-4-amine]: the “TopFlash activity in words” value in data set [1] is listed as “no longer active”. Moreover, in data set [1] (setting [3]), the Emax came out at 100%. For the same compound, the IC50 in data set [1] (setting [2]) is 58.2 ± 1.48 µM; in data set [1] (setting [4]), more than 50 µM.
With `COc1cccc(CNc2ncnc3c(C)csc23)c1` [Compound 10, N-(3-methoxybenzyl)-7-methylthieno[3,2-d]pyrimidin-4-amine], the “TopFlash activity in words” value in data set [1] is listed as “no longer active”. The IC50 in data set [1] (setting [2]) was more than 100 µM; in data set [1] (setting [4]) it was more than 50 µM; in the data set “in vitro” (HCC1395 Cytotoxicity IC50), more than 100 µM. Further, the “GSK HCC1395 Comments” value in data set [1] is given as “Inactive”. In the data set on HCC1395 cells, the “GSK HCC1395 Renilla Comments” value is “Non-toxic”.
Consider `Fc1ccccc1CNc1ncnc2sccc12` [Compound 4e, N-(2-fluorobenzyl)thieno[2,3-d]pyrimidin-4-amine], for which the “GSK HCC1395 Comments” value in data set [1] was “Toxic”. Besides, the concentration for half-maximal inhibition (IC50) in the data set “in vitro” (HCC1395 Cytotoxicity IC50) came to 7.45 ± 2.08 µM. In the data set with HCC1395 cells, the “Cytotoxicity (Renilla) in words” value is “toxicity”.
`COc1cccc(C(C)Nc2ncnc3sccc23)c1` (stereo not shown) [Compound 5b, N-(1-(3-methoxyphenyl)ethyl)thieno[2,3-d]pyrimidin-4-amine]: the “TopFlash activity in words” value in data set [1] is “inactive”. Moreover, the IC50 in data set [1] (setting [2]) was more than 50 µM. Moreover, the “GSK HCC1395 Renilla Comments” value with HCC1395 cells is listed as “Non-toxic”.

The values above are taken from article PMC9649909, “Wnt-pathway inhibitors with selective activity against triple-negative breast cancer: From thienopyrimidine to quinazoline inhibitors” (Frontiers in Pharmacology, 2022).
